In the supplement of paper PMC7801607:

Each compound was assayed on Plasmodium falciparum Dd2 asexual blood stage.
In the case of `CC[C@@H](CO)NCCN[C@@H](CC)CO`, the IC50 is reported as over 5 µM. `CN1C(=O)C(c2ccccc2)C(=O)N(c2ccccc2)c2cc(C(F)(F)F)ccc21` (configuration not stated) gave an IC50 of over 5 µM. `O=C(O)C[C@H]1CC[C@H](c2ccc(-c3ccc(Nc4ccc(C(F)(F)F)nc4)cn3)cc2)CC1` was tested, and the IC50 was over 5 µM. Work on `CC(C)(C)NC(=O)N[C@H](C(=O)N1C[C@H]2[C@@H]([C@H]1C(=O)NC(CC1CCC1)C(=O)C(N)=O)C2(C)C)C(C)(C)C` (some centres not stated) yielded an IC50 of over 5 µM. For `CCc1ccc(C2CC(C(F)(F)F)n3ncc(C(=O)NCc4ccc(OC)cc4)c3N2)cc1` (configuration not stated), the IC50 was over 5 µM. For `CC(C)Nc1ncnc2c1cnn2-c1ccc(Cl)cc1`, the IC50 was over 5 µM. Work on `CC(=O)O[C@H]1C[C@@]2(C)[C@@H](C[C@@H](O)[C@H]3[C@@]4(C)CC[C@@H](O)[C@@H](C)[C@@H]4CC[C@@]32C)/C1=C(\CCC=C(C)C)C(=O)O` yielded an IC50 of over 5 µM. `C[C@@H]1O[C@@H]1P(=O)(O)O` gave an IC50 of over 5 µM. With `CC(C)(C)OC(=O)NCc1ccc(C(=O)N[C@H]2CCOC2=O)cc1` the IC50 was over 5 µM. Work on `Cc1nc(-c2ccc(C3N(C)c4ccc(F)cc4C(=O)N3c3ccccc3)s2)cs1` (configuration not stated) yielded an IC50 of over 5 µM. For `N[C@@H]1CN(c2c(F)cc3c(=O)c(C(=O)O)cn([C@@H]4C[C@@H]4F)c3c2Cl)CC12CC2`, the IC50 was over 5 µM. `CN(Cc1ccc(C(C)(C)C)cc1)Cc1cccc2ccccc12` showed an IC50 of over 5 µM. `CCc1nc2ccccn2c1C(=O)NCc1ccccc1` showed an IC50 of over 5 µM. `CC1(C)C[C@H]1C(=O)N/C(=C\CCCCSC[C@@H](N)C(=O)O)C(=O)O` was tested, and the IC50 was over 5 µM. Work on `Cc1cc(Nc2ccc(F)cc2)nc(SCc2nc3ccccc3[nH]2)n1` yielded an IC50 of over 5 µM. `O=C(/C=C/n1cnc(-c2cc(C(F)(F)F)cc(C(F)(F)F)c2)n1)NNc1cnccn1` was tested, and the IC50 was over 5 µM. With `Cc1cc(-c2ccccc2)c(C(=O)C(=O)Nc2ccc(N3CCN(c4ncc(F)cn4)CC3)cc2)n1C` the IC50 was over 5 µM. In the case of `COC(=O)Nc1nc2cc(Sc3ccccc3)ccc2[nH]1`, the IC50 is reported as over 5 µM. `Nc1nc(O)c2ncn(COCCO)c2n1` was tested, and the IC50 was over 5 µM. In the case of `NC(=O)c1c(N)sc2c1CCCCC2`, the IC50 is reported as over 5 µM. `Nc1nc2c(ncn2/C=C2/CC2(CO)CO)c(=O)[nH]1` gave an IC50 of over 5 µM. For `CCOC(=O)/C=C/[C@H](C[C@@H]1CCNC1=O)NC(=O)[C@H](CC)n1cccc(NC(=O)c2cc(C)on2)c1=O`, the IC50 was over 5 µM. With `CCn1cc(C(=O)O)c(=O)c2cc(F)c(N3CCNC(C)C3)c(F)c21` (configuration not stated) the IC50 was over 5 µM. `CCNC(=O)Nc1cc2c(-c3ccnc(C)c3)ccc(CNC(=O)OC)c2cn1` gave an IC50 of over 5 µM. Compound `O=C(O)c1cc(-c2ccccc2)nc2ccccc12` has an IC50 of over 5 µM. Work on `OCCC#Cc1nc(-c2ccc(F)cc2)c(-c2ccncc2)n1CCCc1ccccc1` yielded an IC50 of over 5 µM. `Cc1cc(CCOc2c(C)cc(-c3nnn(C)n3)cc2C)on1` gave an IC50 of over 5 µM. `O=C(Nc1ccc(Cl)c(C(F)(F)F)c1)C(CCCl)C(=O)Nc1ccc(Cl)c(C(F)(F)F)c1` was tested, and the IC50 was over 5 µM. `O=C(NCc1ccccc1Cl)c1cnc2ccccc2n1` showed an IC50 of over 5 µM. `C[C@H](NC(CC(=O)c1ccccc1C(F)(F)F)C(=O)O)c1ccccc1` (some centres not stated) was tested, and the IC50 was over 5 µM. Work on `CCCCc1ccc(-c2cc(C(=O)O)cc(-c3ccc(Cl)cc3)n2)cc1` yielded an IC50 of over 5 µM. In the case of `C[C@@H](c1nc(-c2ccc(C#N)cc2)cs1)[C@](O)(Cn1cncn1)c1ccc(F)cc1F`, the IC50 is reported as over 5 µM. In the case of `CCNC(=O)Nc1cn2c(-c3ncc(CC)cn3)cc(-c3cccnc3)cc2n1`, the IC50 is reported as over 5 µM. With `CC(C)(C)c1ccc(C(=O)NC(=O)N2CCCc3ccccc32)cc1` the IC50 was over 5 µM. In the case of `COc1ccc(C[C@@H](C)[C@@H](C)Cc2ccc(OC)c(OC)c2)cc1OC`, the IC50 is reported as over 5 µM. In the case of `Nc1nc(O)ncc1F`, the IC50 is reported as over 5 µM. `Cc1ccn2c(C(=O)NCc3ccccc3)c(C)nc2c1` was tested, and the IC50 was over 5 µM. `CCN(CC)S(=O)(=O)c1ccc(Cl)c(C(=O)Nc2sc3c(c2C#N)CCCC3)c1` was tested, and the IC50 was over 5 µM. In the case of `O=C(NCc1ccc2c3c(cccc13)C(=O)N2)c1cccs1`, the IC50 is reported as over 5 µM. In the case of `CC1(C)CC(NC(=O)C(=O)Nc2ccc(Cl)cc2)CC(C)(C)N1`, the IC50 is reported as over 5 µM. `COc1cc(C(C(=O)NC2CCCCC2)N(C(=O)Cc2c[nH]c3ccccc23)c2ccc(C(C)C)cc2)cc(OC)c1OC` (configuration not stated) was tested, and the IC50 was over 5 µM. `CC[C@@]1(O)C(=O)OCc2c1cc1n(c2=O)Cc2cc3c(CN(C)C)c(O)ccc3nc2-1` was tested, and the IC50 was 4.12 µM. With `FC(F)(F)c1cc(C(F)(F)F)c2ccc3nc(-c4nnco4)cn3c2n1` the IC50 was over 5 µM. `O=C(Nc1[nH]c(=O)ncc1F)c1ccccc1` was tested, and the IC50 was over 5 µM. Compound `Nc1ccc(-c2nc3cc(C(F)(F)F)ccc3n2C23CC4CC(CC(C4)C2)C3)cc1` has an IC50 of over 5 µM. `CCCCSc1nc(N)c2[nH]c(=O)c(=O)n(Cc3ccccc3)c2n1` gave an IC50 of over 5 µM. `Nc1nc2c(Cc3cccnc3)c[nH]c2c(=O)[nH]1` showed an IC50 of over 5 µM. With `CCc1cc(CCC(=O)Nc2ccccc2O)c(=O)[nH]c1C` the IC50 was over 5 µM. For `CN(C)CCNC(=O)c1cccc2cccnc12`, the IC50 was over 5 µM. For `CCc1cc(Cc2cnc(N)nc2N)cc2c1N(C)CCC2C` (configuration not stated), the IC50 was over 5 µM. `Nc1nc(O)c2ncn(COC(CO)CO)c2n1` was tested, and the IC50 was over 5 µM. `O=C(O)/C=C/C=C/c1cccc(Oc2cc(Cl)cc(Cl)c2)c1` showed an IC50 of over 5 µM. `CC(C)(C)c1ccc(OCCn2nc(C(=O)O)c3ccccc3c2=O)cc1` was tested, and the IC50 was over 5 µM. With `Cc1nc(Nc2ccc(F)cc2)nc(N2CCc3ccccc3C2C)c1C` (configuration not stated) the IC50 was over 5 µM. `CNCC(=O)OCc1cccnc1N(C)C(=O)OC(C)[n+]1cnn(C[C@](O)(c2cc(F)ccc2F)[C@@H](C)c2nc(-c3ccc(C#N)cc3)cs2)c1` (some centres not stated) gave an IC50 of over 5 µM. `CC(C)C(=O)N[C@H]1[C@H]([C@H](O)[C@H](O)CO)OC(C(=O)O)=C[C@@H]1N=[N+]=[N-]` showed an IC50 of over 5 µM. `NC(=O)C(c1ccccc1)(c1ccccc1)[C@H]1CCCN(CCc2ccc3c(c2)CCO3)C1` showed an IC50 of over 5 µM. `Cc1cc(C)n(O)c(=O)c1` showed an IC50 of over 5 µM. `CCCC(=O)OCCc1ccccc1` gave an IC50 of over 5 µM. `COc1ccc2c(c1OC)C(=O)OC2C1c2c(cc3c(c2OC)OCO3)CCN1C` (configuration not stated) showed an IC50 of over 5 µM. For `O=c1nc(N2CCN(CC3CCCCC3)CC2)sc2c([N+](=O)[O-])cc(C(F)(F)F)cc12`, the IC50 was over 5 µM. In the case of `NC[C@H]1O[C@H](O[C@H]2[C@H](O)[C@@H](O[C@H]3O[C@H](CO)[C@@H](O)[C@H](N)[C@H]3O)[C@H](N)C[C@@H]2N)[C@H](N)C[C@@H]1O`, the IC50 is reported as over 5 µM. For `CCC(C)n1ncn(-c2ccc(N3CCN(c4ccc(OCC5COC(Cn6cncn6)(c6ccc(Cl)cc6Cl)O5)cc4)CC3)cc2)c1=O` (configuration not stated), the IC50 was 4.35 µM. Compound `CCCCCCCCC(CP(=O)(O)C(C)N)C(=O)O` (configuration not stated) has an IC50 of over 5 µM. `O=C(NC(=O)N1CCCc2ccccc21)c1cccc(Cl)c1` was tested, and the IC50 was over 5 µM. With `O=C(Nc1ccccc1)N(Cc1cc(Br)ccc1O)c1ccc(F)cc1` the IC50 was over 5 µM. In the case of `CC[C@@H]1C(=O)OC[C@@H]1Cc1cncn1C`, the IC50 is reported as over 5 µM. `COc1cc2c(O)c3c(c(-c4ccc5c(c4)OCO5)c2cc1OC)C(=O)OC3` gave an IC50 of over 5 µM. With `CC(C)(C)c1cc(CCC(=O)N2CCC2)cc(C(C)(C)C)c1O` the IC50 was over 5 µM. Work on `c1ccc(-c2nnc3c4ccccc4c(N4CCNCC4)nn23)cc1` yielded an IC50 of over 5 µM. `CNC(=O)C1O[C@@H](n2cnc3c(NCc4cccc(I)c4)nc(Cl)nc32)[C@H](O)[C@@H]1O` (some centres not stated) showed an IC50 of over 5 µM. `CCCCCCC1c2ccc(O)cc2Oc2cc(O)ccc21` gave an IC50 of over 5 µM.
